Converted amounts (≈) assume the structure as drawn. The source made the active and inactive calls. The calls are words filed in the database; no cut-off is given here.
Assays:
[1] = tested on: MCF7; test: Cytotoxicity against human MCF7 cells by MTT assay; format: functional, cell-based
[2] = (§1) Cytotoxicity against human Hep3B cells by MTT assay; format: functional, cell-based, Hep 3B2
[3] = tested on: HT-29; test: Cytotoxicity against human HT-29 cells by MTT assay; format: functional, cell-based
[4] = tested on: Hep 3B2; test: as §1; format: functional, cell-based

## C=C(C)CC[C@@H](C[C@@H]1C[C@]2(CC=C(C)C)C(=O)[C@@](C(=O)c3ccc(O)c(O)c3)(C(=O)C3=C2O[C@@H](C(C)(C)O)C3)C1(C)C)C(=C)C [GARCINIELLIPTONE FB]
[1]
  IC50: 6.8 µg/mL (≈ 11 µM)
[2]
  IC50: 6.3 µg/mL (≈ 10.2 µM)
[3]
  IC50: 11.2 µg/mL (≈ 18.1 µM)

## C=C(C)CC[C@@H](CC=C(C)C)[C@@H](C(=C)C)[C@](C)(CC=C(C)C)C(=O)c1cccc(O)c1
[1]
  Activity: inactive
[4]
  Activity: inactive
[3]
  Activity: inactive

## O=c1[nH]cc(F)c(=O)[nH]1 [FLUOROURACIL]
[1]
  IC50: 0.0012 µg/mL (≈ 0.00923 µM)
[2]
  IC50: 0.072 µg/mL (≈ 0.554 µM)
[3]
  IC60: 0.074 µg/mL (≈ 0.569 µM)
